The text below walks through data of patent publication US20240425496A1, “AZETIDINYL PYRIMIDINES AND USES THEREOF” (Aerie Pharmaceuticals, Inc., priority 2021, published 2024).

In general, IC50 refers to the point on the concentration scale where inhibition reaches its midpoint. Higher therefore signals lower potency.

Test [1] concerns the target JAK1 (Homo sapiens (Human), UniProt P23458). As to the kind of experiment: JAK kinase assay (KINASE-GLO luminescent), JAK1 enzyme. It counts as biochemical. To be noted: JAK1 enzyme 10 nM, Abl peptide substrate. The procedure, abridged:
(§1)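 Kinase-Glo luminescence measures ATP remaining after 75 min at room temperature; ATP 2 μM in 4× stock. 11-point 1:5 dilutions, 2.5% DMSO final. Percent of DMSO control per concentration, IC50 by 4-parameter logistic fit.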
Background: Kinase-Glo measures the ATP left after a reaction by luminescence.

Test [2] has as its target TYK2 (Homo sapiens (Human), UniProt P29597). As to the kind of experiment: JAK kinase assay (KINASE-GLO luminescent), TYK2 enzyme. It counts as biochemical. As to conditions: TYK2 enzyme 10 nM, Abl peptide substrate. The procedure, abridged:
as §1

Where only a bound is given, the exact number is not on record here.

Sequence of JAK1 (P23458 whole entry, species assumed): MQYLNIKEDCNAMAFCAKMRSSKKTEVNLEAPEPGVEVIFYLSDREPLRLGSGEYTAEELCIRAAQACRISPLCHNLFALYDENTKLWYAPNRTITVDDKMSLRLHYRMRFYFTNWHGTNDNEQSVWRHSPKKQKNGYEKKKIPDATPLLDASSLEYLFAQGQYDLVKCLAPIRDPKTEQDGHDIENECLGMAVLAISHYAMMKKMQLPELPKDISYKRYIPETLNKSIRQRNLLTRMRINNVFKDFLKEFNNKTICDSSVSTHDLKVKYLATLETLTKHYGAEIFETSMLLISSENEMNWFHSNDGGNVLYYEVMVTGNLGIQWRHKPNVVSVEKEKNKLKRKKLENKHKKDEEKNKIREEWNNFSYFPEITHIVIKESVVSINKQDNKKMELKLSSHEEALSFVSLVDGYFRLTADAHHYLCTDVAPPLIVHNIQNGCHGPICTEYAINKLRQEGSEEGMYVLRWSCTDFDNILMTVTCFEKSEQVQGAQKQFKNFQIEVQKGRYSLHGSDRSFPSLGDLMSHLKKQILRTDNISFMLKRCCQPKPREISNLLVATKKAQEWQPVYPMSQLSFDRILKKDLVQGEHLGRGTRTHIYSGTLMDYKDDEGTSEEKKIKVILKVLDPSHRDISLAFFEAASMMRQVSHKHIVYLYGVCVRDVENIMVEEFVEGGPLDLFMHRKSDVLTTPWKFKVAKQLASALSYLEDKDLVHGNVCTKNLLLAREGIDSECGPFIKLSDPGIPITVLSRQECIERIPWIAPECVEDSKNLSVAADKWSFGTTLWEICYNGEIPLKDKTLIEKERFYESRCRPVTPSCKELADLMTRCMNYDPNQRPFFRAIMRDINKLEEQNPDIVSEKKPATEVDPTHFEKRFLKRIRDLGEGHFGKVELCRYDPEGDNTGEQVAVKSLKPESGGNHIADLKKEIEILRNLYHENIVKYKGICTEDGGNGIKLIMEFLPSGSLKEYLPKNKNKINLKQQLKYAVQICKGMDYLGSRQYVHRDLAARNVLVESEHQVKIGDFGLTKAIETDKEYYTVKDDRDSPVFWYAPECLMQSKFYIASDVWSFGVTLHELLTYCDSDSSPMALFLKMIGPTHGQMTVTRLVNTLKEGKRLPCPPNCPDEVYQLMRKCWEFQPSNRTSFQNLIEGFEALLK
Sequence of TYK2 (P29597 whole entry, species assumed): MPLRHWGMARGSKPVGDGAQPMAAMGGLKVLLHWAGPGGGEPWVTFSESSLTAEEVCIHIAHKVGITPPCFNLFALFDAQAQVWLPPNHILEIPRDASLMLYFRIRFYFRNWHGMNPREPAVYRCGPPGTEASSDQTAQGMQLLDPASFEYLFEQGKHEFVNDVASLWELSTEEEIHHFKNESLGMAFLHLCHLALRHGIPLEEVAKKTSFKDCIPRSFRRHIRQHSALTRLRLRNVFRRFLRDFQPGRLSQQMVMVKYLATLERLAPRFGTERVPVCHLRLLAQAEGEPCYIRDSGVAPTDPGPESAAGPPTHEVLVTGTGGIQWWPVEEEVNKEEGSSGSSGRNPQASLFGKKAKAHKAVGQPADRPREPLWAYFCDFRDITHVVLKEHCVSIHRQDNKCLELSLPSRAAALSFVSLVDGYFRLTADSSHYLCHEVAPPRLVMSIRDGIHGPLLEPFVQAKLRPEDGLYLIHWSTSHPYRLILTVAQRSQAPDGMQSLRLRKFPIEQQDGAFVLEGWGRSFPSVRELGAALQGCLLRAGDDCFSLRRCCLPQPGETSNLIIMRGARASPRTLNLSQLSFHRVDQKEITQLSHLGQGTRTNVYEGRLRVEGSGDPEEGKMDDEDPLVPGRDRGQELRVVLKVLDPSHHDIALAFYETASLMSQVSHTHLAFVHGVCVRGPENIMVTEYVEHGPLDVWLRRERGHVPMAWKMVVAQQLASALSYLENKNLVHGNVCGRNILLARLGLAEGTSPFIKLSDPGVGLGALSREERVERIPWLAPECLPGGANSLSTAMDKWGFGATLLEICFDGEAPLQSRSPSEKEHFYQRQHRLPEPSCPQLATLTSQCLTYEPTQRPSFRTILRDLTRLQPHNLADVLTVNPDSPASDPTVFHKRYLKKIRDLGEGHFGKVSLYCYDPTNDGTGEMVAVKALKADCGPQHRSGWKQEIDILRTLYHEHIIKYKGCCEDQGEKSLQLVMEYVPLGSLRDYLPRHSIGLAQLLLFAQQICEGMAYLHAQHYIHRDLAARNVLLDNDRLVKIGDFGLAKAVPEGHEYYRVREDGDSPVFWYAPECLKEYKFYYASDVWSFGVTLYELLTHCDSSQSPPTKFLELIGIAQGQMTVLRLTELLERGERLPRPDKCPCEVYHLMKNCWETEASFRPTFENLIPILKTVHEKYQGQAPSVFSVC

On to `Cc1cc(Nc2ncc(C)c(N3CC(CC#N)(N4C[C@H]5CN(C)C[C@H]5C4)C3)n2)sn1` [E104a], for which the IC50 in test [1] and in test [2] was less than 100 nM in each case.
For `Cc1cc(Nc2ncc(C)c(N3CC(CC#N)(N4CC5CN(C)CC5C4)C3)n2)sn1` (stereo not shown) [E105a], the IC50 in test [1] is less than 100 nM; in test [2], less than 50 nM.
For `Cc1cc(Nc2ncc(C)c(N3CC(CC#N)(OC4CC5(C4)CC5(F)F)C3)n2)sn1` (stereo not shown) [E106a] the same measures were less than 10 nM and less than 10 nM.
For `Cc1cc(Nc2ncc(C)c(N3CC(C4CC4)(N4CCCCC4)C3)n2)sn1` [E107a] the same measures were less than 100 nM and less than 50 nM.
`Cc1cc(Nc2ncc(C)c(N3CC(C4CC4)C3)n2)sn1` [E108a]: the IC50 was less than 50 nM in test [1] and less than 10 nM in test [2].
For the compound `Cc1cc(Nc2ncc(C)c(N3CC(CC4CC4)C3)n2)sn1` [E109a], the IC50 in test [1] was less than 50 nM; in test [2], less than 10 nM.
For the compound `Cc1cc(Nc2ncc(C)c(N3CC(N4CCN5C[C@H](F)C[C@H]5C4)C3)n2)sn1` [E110a], the figures for the concentration for half-maximal inhibition (IC50) in test [1] and in test [2] were less than 50 nM and less than 10 nM, respectively.
As for `Cc1cnc(Nc2ccc3c(c2)CN(C)C3)nc1N1CC(CC#N)(N2CCCC3(C2)CC3(F)F)C1` (stereo not shown) [E111, 2-(3-(1,1-difluoro-5-azaspiro[2.5]octan-5-yl)-1-(5-methyl-2-((2-methylisoindolin-5-yl)amino)pyrimidin-4-yl)azetidin-3-yl)acetonitrile], the IC50 in test [1] and in test [2] was less than 10 nM each time.
With `Cc1cc(Nc2ncc(C)c(N3CC(CC#N)(N4CCN5CC(C)(C)C[C@H]5C4)C3)n2)sn1` [E111a], the IC50 in test [1] and in test [2] was less than 10 nM each time.
As for `Cc1cc(Nc2ncc(C)c(N3CC(CC#N)(N4CC5(C4)CC(F)(F)CO5)C3)n2)sn1` [E112a], the IC50 in test [1] and in test [2] was less than 50 nM in each case.
As for `Cc1cnc(Nc2ccc3c(c2)CN(C)C3)nc1N1CC(CC#N)(N2CCC3(CC2)CC3(F)F)C1` [E113], the half-maximal inhibitory concentration (IC50) in test [1] and in test [2] was less than 10 nM in each case.
Take `Cc1cc(Nc2ncc(C)c(N3CC(CCCl)(N4CCCCC4)C3)n2)sn1` [E113a]: the IC50 in test [1] and in test [2] was less than 10 nM in each case.
`Cc1cnc(Nc2ccc3c(c2)CN(C)C3)nc1N1CC(CC#N)(N2CCC3(CC2)CC3)C1` [E114]: the IC50 in test [1] and in test [2] was less than 20 nM each time.
Regarding `Cc1cc(Nc2ncc(C)c(N3CC(O)(CC#N)C3)n2)sn1` [E114a], the IC50 in test [1] is less than 20 nM; in test [2], less than 10 nM.
As to `Cc1cnc(Nc2ccc(N3CCN(C)CC3)c(C(F)(F)F)c2)nc1N1CC2(C1)CC2(F)F` [E115], the concentration for half-maximal inhibition (IC50) in test [1] was less than 250 nM; in test [2], less than 100 nM.
In the case of `Cc1cc(Nc2ncc(C)c(N3CC(CC#N)(N4CCCN5CCCC5C4)C3)n2)sn1` (stereo not shown) [E115a], the IC50 is less than 200 nM in test [1] and less than 50 nM in test [2].
The matching figures for `Cc1cnc(Nc2cccc(CN(C)C)c2)nc1N1CC(CC#N)(N2CCCC3(C2)CC3(F)F)C1` (stereo not shown) [E116]: less than 10 nM and less than 10 nM.
For the compound `Cc1cc(Nc2ncc(C)c(N3CC(CCF)(N4CCCCC4)C3)n2)sn1` [E116a], the values for the IC50 in test [1] and in test [2] were less than 50 nM and less than 10 nM, respectively.
With `Cc1cc(Nc2ncc(C)c(N3CC(N)(CC#N)C3)n2)sn1` [E117-AA], the IC50 in test [1] is less than 100 nM; in test [2], less than 50 nM.
With `Cc1cc(Nc2ncc(C)c(N3C4CC3CN(CCC#N)C4)n2)sn1` [E117-AD], the IC50 in test [1] and in test [2] was less than 1000 nM in each case.
On to `Cc1cc(Nc2ncc(C)c(N3CC(CCF)(N4CCN5C[C@H](F)C[C@H]5C4)C3)n2)sn1` [E117-A], for which the IC50 in test [1] is less than 50 nM; in test [2], less than 10 nM.
The matching figures for `Cc1cc(Nc2ncc(C)c(N3CC(CC#N)(N4CC5NCCOC5C4)C3)n2)sn1` (stereo not shown) [E117-B]: less than 50 nM and less than 100 nM.
As to `Cc1cc(Nc2ncc(C)c(N3CC(CC#N)(N4CCC(F)(F)CC4)C3)n2)sn1` [E117-E], the IC50 in test [1] and in test [2] was less than 5 nM in each case.
Turning to `Cc1cc(Nc2ncc(C)c(N3CC(CC#N)(N4CCN5CC6(CC6)C[C@H]5C4)C3)n2)sn1` [E117-G], the IC50 in test [1] and in test [2] was less than 5 nM each time.
Take `Cc1cc(Nc2ncc(C)c(N3CC(CC#N)(N4CCN(CCCF)CC4)C3)n2)sn1` [E117-J]: the IC50 in test [1] and in test [2] was less than 5 nM in each case.
Take `C#CC1(O)CN(c2nc(Nc3cc(C)ns3)ncc2C)C1` [E117-N]: the figures for the IC50 in test [1] and in test [2] were less than 10 nM and less than 5 nM, respectively.
The matching figures for `Cc1cc(Nc2ncc(C)c(N3CC4(C3)CC4(F)F)n2)sn1` [E117-P]: less than 10 nM and less than 5 nM.
The matching figures for `Cc1cc(Nc2ncc(C)c(N3CC(CC#N)(N4CCN(C)C(CCF)C4)C3)n2)sn1` (stereo not shown) [E117-R]: less than 10 nM and less than 5 nM.
In the case of `Cc1cnc(Nc2cc(CN(C)C)ns2)nc1N1CC(CC#N)(N2CCN3CCCC[C@H]3C2)C1` [E117-S], the IC50 in test [1] was less than 25 nM; in test [2], less than 10 nM.
For `Cc1cc(Nc2ncc(C)c(N3CC(CCC#N)C3)n2)sn1` [E117-T], the concentration for half-maximal inhibition (IC50) in test [1] is less than 25 nM; in test [2] it was less than 10 nM.
The matching figures for `Cc1cc(Nc2ncc(C)c(N3CC(CC(F)F)C3)n2)sn1` [E117-U]: less than 25 nM and less than 10 nM.
`Cc1cc(Nc2ncc(C)c(N3C4CC3CN(CC#N)C4)n2)sn1` [E117-V]: the IC50 in test [1] and in test [2] was less than 50 nM throughout.
For `Cc1cc(Nc2ncc(C)c(N3CC(=CC#N)C3)n2)sn1` [E117-X], the IC50 in test [1] and in test [2] was less than 75 nM in each case.
With `Cc1cc(Nc2ncc(C)c(N3CC(CC#N)(CN4CCN5C[C@H](F)C[C@H]5C4)C3)n2)sn1` [E117-Y], the concentration for half-maximal inhibition (IC50) is less than 100 nM in test [1] and less than 50 nM in test [2].
For `Cc1cnc(Nc2cccnc2)nc1N1CC(CC#N)(N2CCN(C)CC2)C1` [E117] the same measures were less than 50 nM and less than 20 nM.
For `Cc1cc(Nc2ncc(C)c(N3CC(CC#N)(N4CCN5C[C@H](C)C[C@H]5C4)C3)n2)sn1` [E117a] the same measures were less than 50 nM and less than 10 nM.
The matching figures for `Cc1cnc(Nc2ccc(N3CCOCC3)cc2)nc1N1CC(CC#N)(N2CCN(C)CC2)C1` [E118]: less than 50 nM and less than 10 nM.
In the case of `Cc1cnc(Nc2ccc3c(c2)CN(C)C3)nc1N1CC(CC#N)(N2CCC(F)(F)CC2)C1` [E119-A], the half-maximal inhibitory concentration (IC50) in test [1] and in test [2] was less than 10 nM in each case.
For `Cc1cnc(Nc2ccc(N3CCOCC3)c(F)c2)nc1N1CC(CC#N)(N2CCCCC2)C1` [E119], the IC50 in test [1] was less than 25 nM; in test [2] it was less than 10 nM.
The matching figures for `Cc1cnc(Nc2cnn(C)c2)nc1N1CC(CC#N)(N2CCN3C[C@H](F)C[C@H]3C2)C1` [E152a, 2-(3-((7R,8aS)-7-fluorohexahydropyrrolo[1,2-a]pyrazin-2(1H)-yl)-1-(5-methyl-2-((1-methyl-1H-pyrazol-4-yl)amino)pyrimidin-4-yl)azetidin-3-yl)acetonitrile]: less than 10 nM and less than 10 nM.
With `[2H]C([2H])([2H])n1cc(Nc2ncc(C)c(N3CC(CC#N)(N4CCN5C[C@H](F)C[C@H]5C4)C3)n2)cn1` [E156a], the IC50 in test [1] and in test [2] was less than 10 nM in each case.
On to `Cc1cnc(Nc2cnn(C)c2)nc1N1CC(CC#N)(N2CCN3CC(F)(F)C[C@H]3C2)C1` [E157a], for which the IC50 in test [1] and in test [2] was less than 10 nM in each case.
For `Cc1cnc(Nc2cnn(C)c2)nc1N1CC(CC#N)(N2CCN3CCCC[C@@H]3C2)C1` [E159a], the results for the IC50 in test [1] and in test [2] were less than 120 nM and less than 100 nM, respectively.
Take `Cc1cnc(Nc2cnn(C)c2)nc1N1CC(CC#N)(N2CCC3C(CC2)C3(F)F)C1` (stereo not shown) [E160a]: the IC50 in test [1] and in test [2] was less than 10 nM in each case.
Regarding `Cc1cnc(Nc2cnn(C)c2)nc1N1CC(CC#N)(N2CC3(C2)CC3(F)F)C1` [E161a], the IC50 in test [1] and in test [2] was less than 20 nM throughout.
For `Cc1cnc(Nc2cnn(C)c2)nc1N1CC(CC#N)(N2CCN3CCC[C@H]3C2)C1` [E162a], the IC50 in test [1] and in test [2] was less than 50 nM throughout.
On to `Cn1cc(Nc2ncc(Cl)c(N3CC(CC#N)(N4CCN5C[C@H](F)C[C@H]5C4)C3)n2)cn1` [E163a], for which the IC50 in test [1] and in test [2] was less than 10 nM throughout.
For `Cc1cnc(Nc2cnn(C)c2)nc1N1CC(CC#N)(N2CCn3cccc3C2)C1` [E164a], the half-inhibitory concentration (IC50) in test [1] and in test [2] was less than 10 nM in each case.
Take `Cc1cnc(Nc2cnn(C)c2)nc1N1CC(CC(F)F)(C2CC2)C1` [E165a]: the IC50 in test [1] and in test [2] was less than 10 nM each time.
As to `COC(=O)CC1(N2CCN3C[C@H](F)C[C@H]3C2)CN(c2nc(Nc3cnn(C)c3)ncc2C)C1` [E166a], the IC50 was less than 1000 nM in test [1] and less than 200 nM in test [2].
For `Cc1cnc(Nc2cnn(C)c2)nc1N1CC(CCO)(N2CCN3C[C@H](F)C[C@H]3C2)C1` [E167a] the same measures were less than 50 nM and less than 50 nM.
For the compound `Cc1cnc(Nc2cnn(C)c2)nc1N1CC(CCC#N)(N2CCN3C[C@H](F)C[C@H]3C2)C1` [E168a], the half-maximal inhibitory concentration (IC50) in test [1] and in test [2] was less than 20 nM in each case.
Consider `Cc1cnc(Nc2cnn(C)c2)nc1N1CC(N2CCN3C[C@H](F)C[C@H]3C2)C1` [E169a], for which the figures for the IC50 in test [1] and in test [2] were less than 250 nM and less than 120 nM, respectively.
For `CCC1(N2CCN3C[C@H](F)C[C@H]3C2)CN(c2nc(Nc3cnn(C)c3)ncc2C)C1` [E170a] the same measures were less than 50 nM and less than 100 nM.
Turning to `Cc1cnc(Nc2cnn(C)c2)nc1N1CC(CC#N)(N2CCN3CCCC[C@H]3C2)C1` [E171a], the IC50 in test [1] and in test [2] was less than 10 nM each time.
Take `Cc1cnc(Nc2cnn(C)c2)nc1N1CC(CC#N)(N2CC3(C2)CC(F)(F)CO3)C1` [E172a]: the IC50 in test [1] and in test [2] was less than 100 nM each time.
